Source: patent publication US20260272878A1, “ADAR1 INHIBITORS AND USES THEREOF” (THE WISTAR INSTITUTE OF ANATOMY AND BIOLOGY, priority 2023, published 2026)
Entries after “also recorded” stand apart in the source; their conditions may differ. Read-outs that look alike come from different tables or passages of the source.

Assays:
HeLa cells = assay: Cell death mechanism, Annexin V apoptosis marker, HeLa; format: cell-based, human
Text: (§1) FIGS. 10A-10C show ADAR1i-124 kills cancer cells via different cell death mechanism. (FIG. 10A) Differential expression of ADAR1p150 and ADAR1p110 in cancer cells. […] Annexin V and pMLKL were used as apoptosis and necroptosis markers, respectively. At least 200 cells were examined. Data: mean±SD (n=3). Significant differences were identified by two tailed Student's t-tests: *P<0.05, n.s., not significant. […] We plan to evaluate ADAR1 inhibitors in vivo in mouse tumor model systems by using these mouse cancer cell lines.
(§2) Thus, ADAR1i-124 has the potential to act as a “two birds with one stone” cancer therapeutic.

[1] = tested on: mouse melanoma and ovarian cancer cells; assay: Killing of mouse melanoma and ovarian cancer cells (FIG. 10C); format: cell-based
Text: as §1

YUMM1.7 cells [2] = assay: qRT-PCR of ISG expression (IFN signaling), YUMM1.7; format: cell-based, mouse; conditions: YUMM1.7, 10 μM, 12 hrs
Protocol: (§3) FIGS. 9A-9C show dose-dependent killing of cancer cells and activation of IFN signaling. […] YUMM1.7 (FIG. 9B) and HGS2 cells (FIG. 9C) were treated with ADAR1i-124 at 10 μM (12 hrs). RNA samples were analyzed by qRT-PCR to monitor ISG expression levels. Data: mean±SD (n=3). Significant differences were identified by two-tailed Student's t-tests: ***P<0.001.
(§4) Dose-dependent selective killing of telomerase reactivated cancer cells was determined (FIG. 9A).

ALT U2OS cells = assay: Cell killing / viability, U2OS; format: cell-based
Protocol: FIGS. 8A-8C show analysis of ADAR1i-124 effects in cancer cells. […] Viability was examined using the Apo Tox-Glo assay system. Control, 0.3% DMSO. Data: mean±SD (n=3). Significant differences identified by two-tailed Student's t-tests: *P<0.05, n.s., not significant. (FIG. 8B) Western blotting analysis of HeLa cells treated with ADAR1i-124 (10 μM).
as §3, §4

HGS2 cells = assay: qRT-PCR of ISG expression (IFN signaling), HGS2; format: cell-based, mouse; conditions: HGS2, 10 μM, 12 hrs
Protocol: as §3

[3] = Half-life in culture media by loss of cancer cell killing activity; format: in vitro ADME; conditions: determined by loss of cancer cell killing activity (data not shown), read-out: t1/2 in the culture media (converted)
Text: We will modify ADAR1i-124 and derive ADAR1i-124 analogs with higher potency (higher affinity binding and lower IC50) ready to be tested for animal model studies (next section).

YUMM1.7 cells [4] = assay: Cell death mechanism, pMLKL necroptosis marker, YUMM1.7; format: cell-based, mouse; conditions: YUMM1.7, pMLKL marker
Text: as §1, §2

[5] = tested on: WM3000 PDX melanoma cell line; assay: Dose-dependent killing, WM3000; format: cell-based; conditions: human PDX melanoma cell line
Protocol: as §3
Treatments and analysis. The efficacy of ADAR1i alone or combining with αPD1 Ab for suppression of tumor growth will be assessed as described in the previous section (Aim 2-1). We have at our disposal the largest collection (>500) of clinically and genetically annotated melanoma PDX. […] We will use the human melanoma cell lines/PDXs in subcutaneous tumor assays in the hu-BLT mice. Human melanomas will be established in the hu-BLT mice and randomized into 4 treatment groups (n=5 per group): 1) ADAR1i alone, 2) αPD-1 Ab alone, 3) combination ADAR1i/αPD-1, 4) control IgG. Tumor volumes and overall survival will be determined as described in the previous section (Aim 2-1). Tumors will be biopsied and blood collected at interval periods (at EOT, e.g. 7 days, at TTR, and at EOS) and analyzed for hallmark melanoma features as above. […]

[6] = mouse, in vivo, ip
mouse melanoma = assay: Subcutaneous mouse melanoma growth in B6 black mice; format: in vivo; conditions: 4 treatments starting at Day 8, versus vehicle
Text: We inoculated mouse melanoma cells subcutaneously in B6 black mice. Then, starting at Day 8, we treated mice for 4 treatments of either vehicle only or ADAR1i-124 (FIG. 11A).

HSG2 = assay: Dose-dependent killing, HSG2; format: cell-based; conditions: mouse non-ALT cancer cells
Protocol: as §3

Z-RNA = Z-RNA formation; format: cell-based
Text: FIGS. 7A-7C show analysis of ADAR1i-13 and analogs. […] IC50 values determined by dose-dependent in vitro editing assay are shown for ADAR1 inhibition positive compounds. […] Dumbbell-shaped dsRNA has been reported to form Z-RNA conformation and act as a strong IFN signaling activation triggers. ADAR1p150 mediated A-to-I editing suppresses Z-RNA structure transition and activation of IFN signaling.

Q: What does the source list for `N#Cc1ccc(NC(=O)c2c(Cl)c3ccccc3n2CO)cc1` [ADAR1i-124]?
A: Induction of apoptosis (HeLa cells): induced apoptosis; also recorded: killed via apoptosis; Killing of mouse melanoma and ovarian cancer cells [1]: dose-dependently and efficiently killed; ISG expression / IFN signaling activation (YUMM1.7 cells [2]): upregulated expression of interferon stimulated genes (ISGs) including MDA5, CXCL9, and CXCL10; also recorded: upregulated expression of known ISGs; also recorded: activated type I IFN signaling; also recorded: Activation of the IFN signaling; Killing of U2OS cells (ALT U2OS cells): unaffected; ISG expression / IFN signaling activation (HGS2 cells): Activation of the IFN signaling; half-life [3]: ~12 h; Induction of necroptosis (YUMM1.7 cells [4]): induced necroptosis; also recorded: killed via necroptosis; Killing of WM3000 cells [5]: killed one PDX melanoma cell line, WM3000, in a dose-dependent manner; also recorded: dose-dependently killed; Well tolerated dose [6]: up to 50 mg/kg; Well tolerated dose ([6]; 5 days): up to 50 mg/kg; Growth of mouse melanomas in vivo (mouse melanoma): significantly suppressed growth of mouse melanomas; Killing of HSG2 cells (HSG2): dose-dependently killed; Z-RNA formation (Z-RNA): induces formation of Z-RNAs
